Experiments:
Phakopsora pachyrhizi = Phakopsora pachyrhizi test in soybean, preventive, in vivo on plants; conditions: in Glycine max, read-out: Efficacy (% control), disease severity compared to the untreated check
Alternaria solani = Alternaria solani (early blight of tomato/potato) in vitro test, radial growth on potato dextrose agar; format: cell-based; conditions: 168 h, 300 ppm in potato dextrose agar, 25° C., 60% relative humidity, seven days, read-out: control compared to the untreated check (radial growth)
Pyricularia oryzae = assay: microbe, parasite or virus in culture; format: cell-based; conditions: 168 h, read-out: control compared to the untreated check (radial growth)
Rhizoctonia solani = Rhizoctonia solani (rice sheath blight/potato black scurf) in vitro test, radial growth on potato dextrose agar; format: cell-based; conditions: 168 h, 300 ppm in potato dextrose agar, 25° C., 60% relative humidity, seven days, read-out: control compared to the untreated check (radial growth)

SMILES | pest or weed control at 500 ppm (Phakopsora pachyrhizi) [%] | inhibition of growth at 300 ppm (Alternaria solani) [%] | inhibition of growth at 300 ppm (Pyricularia oryzae) [%] | inhibition of growth at 300 ppm (Rhizoctonia solani) [%]
CCN(C)C=Nc1cc(C)cc(Nc2cnccn2)c1Cl [Compound 194, N′-(2-chloro-5-methyl-3-(pyrazin-2-ylamino)phenyl)-N-ethyl-N-methylformimidamide] | ≥ 70 |  |  | 
CCN(C)C=Nc1cc(OC)cc(Cc2cccc(C)c2)c1C [Compound 278, N-ethyl-N′-(5-methoxy-2-methyl-3-(3-methylbenzyl)phenyl)-N-methylformimidamide] | ≥ 70 |  |  | 
CCN(C)C=Nc1cc(C)cc(N(C)c2cnccn2)c1Cl [Compound 210, N′-(2-chloro-5-methyl-3-(methyl(pyrazin-2-yl)amino)phenyl)-N-ethyl-N-methylformimidamide] | ≥ 70 |  |  | 
CCN(C)C=Nc1cc(F)cc(Nc2ccccn2)c1C [Compound 95, N-ethyl-N′-(5-fluoro-2-methyl-3-(pyridin-2-ylamino)phenyl)-N-methylformimidamide] | ≥ 70 |  |  | 
CCN(C)C=Nc1cc(F)cc(Nc2cnccn2)c1C [Compound 193, N-ethyl-N′-(5-fluoro-2-methyl-3-(pyrazin-2-ylamino)phenyl)-N-methylformimidamide] | ≥ 70 |  |  | 
CCN(C)C=Nc1cc(Cl)cc(Nc2cnccn2)c1C [Compound 211, N′-(5-chloro-2-methyl-3-(pyrazin-2-ylamino)phenyl)-N-ethyl-N-methylformimidamide] | ≥ 70 |  |  | 
CCN(C)C=Nc1cc(F)cc(Nc2ncccn2)c1C [Compound 187, N-ethyl-N′-(5-fluoro-2-methyl-3-(pyrimidin-2-ylamino)phenyl)-N-methylformimidamide] | ≥ 70 |  |  | 
CCN(C)C=Nc1cc(C)cc(N(C)c2ncccn2)c1Cl [Compound 192, N′-(2-chloro-5-methyl-3-(methyl(pyrimidin-2-yl)amino)phenyl)-N-ethyl-N-methylformimidamide] | ≥ 70 |  |  | 
CCN(C)C=Nc1cc(C)cc(Cc2cccc(C(F)(F)F)c2)c1Cl [Compound 53, N′-(2-chloro-5-methyl-3-(3-(trifluoromethyl)benzyl)phenyl)-N-ethyl-N-methylformimidamide] | ≥ 70 | ≥ 70 |  | 
CCN(C)C=Nc1cc(F)cc(N(C)c2ccccn2)c1C [Compound 109, N-ethyl-N′-(5-fluoro-2-methyl-3-(methyl(pyridin-2-yl)amino)phenyl)-N-methylformimidamide] | ≥ 70 |  |  | 
CCN(C)C=Nc1cc(OC)cc(N(C)c2ccc(F)c(OC)c2)c1C [Compound 284, N-ethyl-N′-(3-((4-fluoro-3-methoxyphenyl)(methyl)amino)-5-methoxy-2-methylphenyl)-N-methylformimidamide] | ≥ 70 |  |  | 
CCN(C)C=Nc1cc(OC)cc(Cc2ccc(F)c(Cl)c2)c1C [Compound 282, N′-(3-(3-chloro-4-fluorobenzyl)-5-methoxy-2-methylphenyl)-N-ethyl-N-methylformimidamide] | ≥ 70 |  |  | 
CCN(C)C=Nc1cc(Cl)cc(Nc2ccccc2)c1C [Compound 155, N′-(5-chloro-2-methyl-3-(phenylamino)phenyl)-N-ethyl-N-methylformimidamide] | ≥ 70 | ≥ 70 | ≥ 70 | 
CCN(C)C=Nc1cc(C)cc(N(C)c2ccc3c(c2)OCCO3)c1Cl [Compound 184, N′-(2-chloro-3-((2,3-dihydrobenzo[b][1,4]dioxin-6-yl)(methyl)amino)-5-methylphenyl)-N-ethyl-N-methylformimidamide] | ≥ 70 |  |  | 
CCN(C)C=Nc1cc(C)cc(Nc2ccccn2)c1Cl [Compound 85, N′-(2-chloro-5-methyl-3-(pyridin-2-ylamino)phenyl)-N-ethyl-N-methylformimidamide] | ≥ 70 | ≥ 70 |  | 
CCN(C)C=Nc1cc(C)cc(Nc2cc(C)cc(F)c2)c1Cl [Compound 111, N′-(2-chloro-3-((3-fluoro-5-methylphenyl)amino)-5-methylphenyl)-N-ethyl-N-methylformimidamide] | ≥ 70 |  | ≥ 70 | 
CCN(C)C=Nc1cc(C)cc(N(C)c2ncccc2C(F)(F)F)c1Cl [Compound 157, N′-(2-chloro-5-methyl-3-(methyl(3-(trifluoromethyl)pyridin-2-yl)amino)phenyl)-N-ethyl-N-methylformimidamide] | ≥ 70 | ≥ 70 | ≥ 70 | 
CCN(C)C=Nc1cc(C)cc(Cc2cccnc2)c1Cl [Compound 66, N′-(2-chloro-5-methyl-3-(pyridin-3-ylmethyl)phenyl)-N-ethyl-N-methylformimidamide] | ≥ 70 | ≥ 70 | ≥ 70 | 
CCN(C)C=Nc1cc(C)cc(NC(C)Cc2cnccn2)c1Cl (centres unmarked) [Compound 195, N′-(2-chloro-5-methyl-3-((1-(pyrazin-2-yl)propan-2-yl)amino)phenyl)-N-ethyl-N-methylformimidamide] | ≥ 70 |  |  | 
CCN(C)C=Nc1cc(C)cc(NCc2cnc(C)cn2)c1Cl [Compound 196, N′-(2-chloro-5-methyl-3-(((5-methylpyrazin-2-yl)methyl)amino)phenyl)-N-ethyl-N-methylformimidamide] | ≥ 70 |  |  | 
CCN(C)C=Nc1cc(OC)cc(Cc2ccc(Cl)cc2)c1C [Compound 279, N′-(3-(4-chlorobenzyl)-5-methoxy-2-methylphenyl)-N-ethyl-N-methylformimidamide] | ≥ 70 |  |  | 
CCN(C)C=Nc1cc(OC)cc(Cc2cc(F)ccc2C)c1C [Compound 281, N-ethyl-N′-(3-(5-fluoro-2-methylbenzyl)-5-methoxy-2-methylphenyl)-N-methylformimidamide] | ≥ 70 |  |  | 
CCN(C)C=Nc1cc(C)cc(Nc2ncccc2C)c1Cl [Compound 86, N′-(2-chloro-5-methyl-3-((3-methylpyridin-2-yl)amino)phenyl)-N-ethyl-N-methylformimidamide] | ≥ 70 | ≥ 70 | ≥ 70 | 
CCN(C)C=Nc1cc(F)cc(Cc2ccccc2C#N)c1C [Compound 168, N′-(3-(2-cyanobenzyl)-5-fluoro-2-methylphenyl)-N-ethyl-N-methylformimidamide] |  | ≥ 70 | ≥ 70 | ≥ 70
CCN(C)C=Nc1cc(OC)cc(N(C)c2ccccc2OC)c1C [Compound 270, N-ethyl-N′-(5-methoxy-3-((2-methoxyphenyl)(methyl)amino)-2-methylphenyl)-N-methylformimidamide] | ≥ 70 |  |  | 
CCN(C)C=Nc1cc(C)cc(Cc2ccc(F)cc2Br)c1Cl [Compound 215, N′-(3-(2-bromo-4-fluorobenzyl)-2-chloro-5-methylphenyl)-N-ethyl-N-methylformimidamide] | ≥ 70 |  |  | 
CCN(C)C=Nc1cc(F)cc(N(C)c2ncccc2C(F)(F)F)c1C [Compound 153, N-ethyl-N′-(5-fluoro-2-methyl-3-(methyl(3-(trifluoromethyl)pyridin-2-yl)amino)phenyl)-N-methylformimidamide] | ≥ 70 | ≥ 70 |  | 

Reference: patent US12545639B2, “3-substituted phenylamidine compounds, preparation and use thereof” (PI INDUSTRIES LTD., priority 2019, dated 2026)
